# Key:
# [1] = test system: Escherichia coli EC-1: VOGEL, mouse virulent; assay: MIC determination, EC-1; assay type: cell-based; settings: Escherichia coli, read-out: EC-1 (MIC), Table 3, lower of duplicate values
# Method: (§1) The in vitro antibacterial activity of compounds described in the Examples was evaluated by minimum inhibitory concentration (MIC) testing according to Clinical and Laboratory Standards Institute (CLSI). See: Clinical and Laboratory Standards Institute. Methods for Dilution Antimicrobial Susceptibility Tests for Bacteria that Grow Aerobically; Approved Standard-Eighth Edition. CLSI document M7-A8 [ISBN 1-56238-689-1]. Clinical and Laboratory Standards Institute, 940 West Valley Road, Suite 1400, Wayne, Pa. 19087-1898 USA, 2006; also Clinical and Laboratory Standards Institute. Performance Standards for Antimicrobial Susceptibility Testing; Twentieth Informational Supplement. CLSI document M100-S20 [ISBN 1-56238-716-2]. Clinical and Laboratory Standards Institute.
# (§2) The MIC determination is a standard laboratory method for evaluating the antibacterial activity of a compound. The MIC represents the lowest drug concentration that inhibits visible growth of bacteria following overnight incubation. […] Typically, the drug concentration range is broken down into 2-fold increments (e.g. 0.06 μg/mL, 0.12 μg/mL. 0.25 μg/mL, 0.50 μg/mL, 1.0 μg/mL, etc.) and the various drug concentrations are all individually incubated overnight with approximately the same number of bacteria. The MIC is then determined by visually inspecting the drug effect at each concentration, and identifying the lowest drug concentration that has inhibited bacterial growth as compared to the drug free control. Typically, bacteria continue to grow at drug concentrations lower than the MIC and don't grow at concentrations at and above the MIC.
# (§3) The MIC values described in Table 2 and 3 below were derived from assays wherein each test compound was evaluated in duplicate. In cases where the duplicate values varied by 0-2-fold, the lower of the two values was reported below. Generally speaking, if the duplicate values varied by more than 2-fold, the assay was considered non-valid and was repeated until the variation between duplicate runs was ≦2-fold. In line with the CLSI guidelines referred to above, both control organisms and reference compounds were utilized in each MIC assay to provide proper quality control. MIC values generated with these control organisms and reference compounds were required to fall within a defined range for the assay to be considered valid and be included herein. Those skilled in the art will recognize that MIC values can and do vary from experiment to experiment. Generally speaking, it should be recognized that MIC values often vary +/−2-fold from experiment to experiment. While a single MIC is reported for each compound and each microorganism, the reader should not conclude that each compound was only tested once. Several of the compounds were subjected to multiple tests. The data reported in Tables 2 and 3 is reflective of the compounds relative activity and different MICs may have been generated on these occasions in line with the guidelines described above.
# (§4) The following bacterial strains were used in these MIC determinations:
# 3) Escherichia coli EC-1: VOGEL, mouse virulent labeled as EC-1 in Tables 2 and 3;
# [2] = test system: Acinetobacter baumannii/haemolyticus, multidrug-resistant clinical isolate (AB-3167); assay: MIC determination, AB-3167; assay type: cell-based; settings: Table 3, lower of duplicate values
# Method: as §1, §2, §3, §4
# 2) Acinetobacter baumannii/haemolyticus: Multidrug-resistant clinical isolate labeled as AB-3167 in Tables 2 and 3;
# [3] = target: T1, Pseudomonas aeruginosa LpxC enzyme (Pseudomonas aeruginosa, UniProt P47205); assay: IC50 assay, LpxC enzyme from P. aeruginosa (PA LpxC enzyme IC50); assay type: biochemical; settings: Table 3; LpxC enzyme 0.1 nM, 25° C., 1 hour; read-out: PA:IC50
# T1 construct: made in house; host or cells: E. coli
# T1 sequence (P47205 1-303): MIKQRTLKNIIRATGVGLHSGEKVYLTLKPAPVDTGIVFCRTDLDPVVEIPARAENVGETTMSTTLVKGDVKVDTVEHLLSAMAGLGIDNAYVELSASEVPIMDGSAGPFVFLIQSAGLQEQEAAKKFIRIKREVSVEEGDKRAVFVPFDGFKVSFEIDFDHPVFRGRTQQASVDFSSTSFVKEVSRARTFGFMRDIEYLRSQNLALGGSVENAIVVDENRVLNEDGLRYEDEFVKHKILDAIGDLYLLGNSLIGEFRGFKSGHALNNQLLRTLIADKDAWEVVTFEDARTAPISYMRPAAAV
# Method: In order to assess the compounds biological activity, selected in vitro assays were conducted on selected compounds. One of the assays measured the compounds ability to disrupt the synthesis of lipopolysaccharide, LPS, which is a component of the outer membrane of Gram-negative bacteria. Disruption of this synthesis is lethal to the bacteria. The assay determined the compound's ability to inhibit LpxC, which is the first enzyme in the biosynthetic pathway for LPS (measured as IC50). Additionally, MICs (minimal inhibitory concentrations) were determined for several bacteria. The specific protocols are described below:
# A) IC50 Assay, LpxC Enzyme from P. aeruginosa (Labeled as PA LpxC Enzyme IC50):
# At the end of 1 hour, 5 ul of 1 N HCl was added to stop the enzyme reaction, the plates were centrifuged, and then processed with the BioTrove Rapidfire HTMS Mass Spectrometry System. A no-enzyme control was used in calculating the IC50 values from the percent conversion values.
# PA:UC12120 = assay: MIC determination, PA:UC12120 (Table 3); assay type: cell-based, Pseudomonas aeruginosa; settings: Pseudomonas aeruginosa, UC12120, Table 3, lower of duplicate values
# Method: as §1, §2, §3
# In Table 3 below, column 1 corresponds to the Example number, column 2 provides the IUPAC name, columns 3-6 provide in vitro biological data generated in the same manner as in Table 2, columns 7 and 8 provide the retention times and mass spectra generated via LCMS, using the method described below. All data is not currently available for all compounds, as indicated by a blank cell in Table 3.
SMILES,MIC [1],MIC [2],IC50 [3],MIC (PA:UC12120)
"COc1cc(-c2cc(=O)n(CCC(C)(C(=O)NO)S(C)(=O)=O)cc2F)ccc1F (stereo not drawn) [Example 67, 4-[5-fluoro-4-(4-fluoro-3-methoxyphenyl)-2-oxopyridin-1(2H)-yl]-N-hydroxy-2-methyl-2-(methylsulfonyl)butanamide]",16 µg/mL,64 µg/mL,4.5 nM,4 µg/mL
"CC(CCn1cc(F)c(-c2cnc3ccccc3c2)cc1=O)(C(=O)NO)S(C)(=O)=O (stereo not drawn) [Example 87, 4-(5-fluoro-2-oxo-4-quinolin-3-ylpyridin-1(2H)-yl)-N-hydroxy-2-methyl-2-(methylsulfonyl)butanamide]",16 µg/mL,> 64 µg/mL,6.1 nM,8 µg/mL
"COC(C)c1ccc(-c2cc(=O)n(CCC(C)(C(=O)NO)S(C)(=O)=O)cc2F)cc1 (stereo not drawn) [Example 88, 4-{5-fluoro-4-[4-(1-methoxyethyl)phenyl]-2-oxopyridin-1(2H)-yl}-N-hydroxy-2-methyl-2-(methylsulfonyl)butanamide]",16 µg/mL,> 64 µg/mL,7.6 nM,4 µg/mL
"CC(C)Oc1ncccc1-c1cc(=O)n(CCC(C)(C(=O)NO)S(C)(=O)=O)cc1F (stereo not drawn) [Example 104, 4-(5′-fluoro-2-isopropoxy-2′-oxo-3,4′-bipyridin-1′(2′H)-yl)-N-hydroxy-2-methyl-2-(methylsulfonyl)butanamide]",8 µg/mL,32 µg/mL,> 100 nM,32 µg/mL
"CC(CCn1cc(F)c(-c2ccccc2C#N)cc1=O)(C(=O)NO)S(C)(=O)=O (stereo not drawn) [Example 94, 4-[4-(2-cyanophenyl)-5-fluoro-2-oxopyridin-1(2H)-yl]-N-hydroxy-2-methyl-2-(methylsulfonyl)butanamide]",8 µg/mL,32 µg/mL,32.3 nM,32 µg/mL
"CC(=O)Nc1cccc(-c2cc(=O)n(CCC(C)(C(=O)NO)S(C)(=O)=O)cc2F)c1 (stereo not drawn) [Example 61, 4-[4-(3-acetamidophenyl)-5-fluoro-2-oxopyridin-1(2H)-yl]-N-hydroxy-2-methyl-2-(methylsulfonyl)butanamide]",> 64 µg/mL,> 64 µg/mL,> 100 nM,> 64 µg/mL
"COc1ccc(-c2cc(=O)n(CCC(C)(C(=O)NO)S(C)(=O)=O)cc2F)cc1 (stereo not drawn) [Example 59, 4-[5-fluoro-4-(4-methoxyphenyl)-2-oxopyridin-1(2H)-yl]-N-hydroxy-2-methyl-2-(methylsulfonyl)butanamide]",1 µg/mL,> 64 µg/mL,1 nM,1 µg/mL
"CC(CCn1cc(F)c(-c2ccc(CC#N)cc2)cc1=O)(C(=O)NO)S(C)(=O)=O (stereo not drawn) [Example 91, 4-{4-[4-(cyanomethyl)phenyl]-5-fluoro-2-oxopyridin-1(2H)-yl}-N-hydroxy-2-methyl-2-(methylsulfonyl)butanamide]",16 µg/mL,> 64 µg/mL,2.3 nM,4 µg/mL
"COc1cc(C)cc(-c2cc(=O)n(CCC(C)(C(=O)NO)S(C)(=O)=O)cc2F)c1F (stereo not drawn) [Example 111, 4-[5-fluoro-4-(2-fluoro-3-methoxy-5-methylphenyl)-2-oxopyridin-1(2H)-yl]-N-hydroxy-2-methyl-2-(methylsulfonyl)butanamide]",4 µg/mL,> 64 µg/mL,3 nM,4 µg/mL
"CN1Cc2ccc(-c3cc(=O)n(CCC(C)(C(=O)NO)S(C)(=O)=O)cc3F)cc2C1=O (stereo not drawn) [Example 57, 4-[5-fluoro-4-(2-methyl-3-oxo-2,3-dihydro-1H-isoindol-5-yl)-2-oxopyridin-1(2H)-yl]-N-hydroxy-2-methyl-2-(methylsulfonyl)butanamide]",> 64 µg/mL,> 64 µg/mL,21 nM,> 64 µg/mL
"CC(CCn1cc(F)c(-c2ccc(CO)nc2)cc1=O)(C(=O)NO)S(C)(=O)=O (stereo not drawn) [Example 85, 4-[5′-fluoro-6-(hydroxymethyl)-2′-oxo-3,4′-bipyridin-1′(2′H)-yl]-N-hydroxy-2-methyl-2-(methylsulfonyl)butanamide]",> 64 µg/mL,> 64 µg/mL,> 100 nM,> 64 µg/mL
"CC(CCn1cc(F)c(-c2ccc(CCC#N)cc2)cc1=O)(C(=O)NO)S(C)(=O)=O (stereo not drawn) [Example 77, 4-{4-[4-(2-cyanoethyl)phenyl]-5-fluoro-2-oxopyridin-1(2H)-yl}-N-hydroxy-2-methyl-2-(methylsulfonyl)butanamide]",32 µg/mL,> 64 µg/mL,2.6 nM,4 µg/mL
"COc1cc(C#N)cc(-c2cc(=O)n(CCC(C)(C(=O)NO)S(C)(=O)=O)cc2F)c1 (stereo not drawn) [Example 119, 4-[4-(3-cyano-5-methoxyphenyl)-5-fluoro-2-oxopyridin-1(2H)-yl]-N-hydroxy-2-methyl-2-(methylsulfonyl)butanamide]",> 64 µg/mL,> 64 µg/mL,50.8 nM,64 µg/mL
"CNC(=O)c1ccc(-c2cc(=O)n(CCC(C)(C(=O)NO)S(C)(=O)=O)cc2F)cc1F (stereo not drawn) [Example 52, 2-fluoro-4-{5-fluoro-1-[4-(hydroxyamino)-3-methyl-3-(methylsulfonyl)-4-oxobutyl]-2-oxo-1,2-dihydropyridin-4-yl}-N-methylbenzamide]",64 µg/mL,> 64 µg/mL,2.2 nM,32 µg/mL
"CC(CCn1cc(F)c(-c2cccc(CC(N)=O)c2)cc1=O)(C(=O)NO)S(C)(=O)=O (stereo not drawn) [Example 123, 4-{4-[3-(2-amino-2-oxoethyl)phenyl]-5-fluoro-2-oxopyridin-1(2H)-yl}-N-hydroxy-2-methyl-2-(methylsulfonyl)butanamide]",> 64 µg/mL,> 64 µg/mL,–,> 64 µg/mL
"CC(CCn1cc(F)c(-c2cc[nH]n2)cc1=O)(C(=O)NO)S(C)(=O)=O (stereo not drawn) [Example 121, 4-[5-fluoro-2-oxo-4-(1H-pyrazol-3-yl)pyridin-1(2H)-yl]-N-hydroxy-2-methyl-2-(methylsulfonyl)butanamide]",> 64 µg/mL,> 64 µg/mL,–,> 64 µg/mL
"CC(CCn1cc(F)c(-c2cccc(CO)c2F)cc1=O)(C(=O)NO)S(C)(=O)=O (stereo not drawn) [Example 122, 4-{5-fluoro-4-[2-fluoro-3-(hydroxymethyl)phenyl]-2-oxopyridin-1(2H)-yl}-N-hydroxy-2-methyl-2-(methylsulfonyl)butanamide]",–,–,2.4 nM,–
"CC(CCn1cc(F)c(-c2ccc(F)c(CO)c2)cc1=O)(C(=O)NO)S(C)(=O)=O (stereo not drawn) [Example 105, 4-{5-fluoro-4-[4-fluoro-3-(hydroxymethyl)phenyl]-2-oxopyridin-1(2H)-yl}-N-hydroxy-2-methyl-2-(methylsulfonyl)butanamide]",> 64 µg/mL,> 64 µg/mL,–,> 64 µg/mL

# — patent publication US8624034B2, “Fluoro-pyridinone derivatives useful as antibacterial agents” (Pfizer Inc., priority 2011, dated 2014)
